From patent US20020137929A1, “1 - (3-heterocyclylphenyl) isothiourea, -isourea, -guanidine and -amidine herbicidal agents” (Intellectual Property Department, BASF Aktiengesellschaft, priority 1998, published 2002)

Experiments:
[1] = system: AMBEL (Ragweed, Common); assay: Preemergence herbicidal evaluation; type: in vivo, Ambrosia artemisifolia; details: rated 4-5 weeks after treatment
From the text: (§1) Results of herbicide evaluation are expressed on a rating scale (0-9). The scale is based upon a visual observation of plant stand, vigor, malformation, size, chlorosis and overall plant appearance as compared with a control.
(§2) The preemergence herbicidal activity of the test compounds of the present invention is exemplified by the following tests in which the seeds of a variety of monocotyledonous and dicotyledonous plants are separately mixed with potting soil and planted on top of approximately one inch of soil in separate pint cups. After planting, the cups are sprayed with the selected aqueous acetone solution containing test compound in sufficient quantity to provide the equivalent of about 0.0156 to 0.500 kg per hectare of test compound per cup. The treated cups are then placed on greenhouse benches, watered and cared for in accordance with conventional greenhouse procedures. From four to five weeks after treatment, the tests are terminated and each cup is examined and rated according to the rating system provided in Example 37.
(§3) The compounds evaluated are reported by compound number given in Example 37.

[2] = system: SAGPY (Arrowhead (Pygmaea)); assay: Preemergence weed control under flooded paddy conditions; type: in vivo, Sagittaria pygmaea; details: rated 3-4 weeks after treatment
Outline: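 Herbicidal effect is scored visually on a 0-9 scale against an untreated control, three to four weeks after compounds are pipetted into the flood water (1.5 to 3 cm deep) over seeds planted in silt loam at 0.5 cm depth. Rates: about 0.0313 to 0.500 kg/ha.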

[3] = system: GLXMAW (Soybean, Williams); assay: Preemergence herbicidal evaluation; type: in vivo, Glycine max, (L.) Merr. cv Williams; details: rated 4-5 weeks after treatment
From the text: as §1, §2, §3

[4] = system: CYPSE (Flatsedge); assay: Preemergence weed control under flooded paddy conditions; type: in vivo, Cyperus serotinus; details: rated 3-4 weeks after treatment
Description: as §1
Preemergence herbicidal activity under flooded paddy conditions is determined as follows: plant seeds or propagating organs are planted in the top 0.5 cm of silt loam soil in 32 oz. plastic containers with a diameter of 10.5 cm and no drainage holes. Water is added to these containers and maintained at 1.5 to 3 cm above the soil surface for the duration of the experiment. The test compounds are applied as aqueous/acetone mixtures 50/50 v/v pipetted directly into the flood water to give the equivalent of about 0.0313 to 0.500 kg/ha of active ingredient. The treated containers are placed on greenhouse benches and cared for in accordance with conventional greenhouse procedures. Three to four weeks after treatment, the test is terminated and each container is examined and herbicidal effect rated according to the rating system provided in Example 37. The compounds evaluated are reported by compound number given in Example 37.
Plant species employed in this example are reported by header abbreviation, common name and scientific name.

[5] = system: ECHCG (Barnyardgrass); assay: Preemergence herbicidal evaluation; type: in vivo, Echinochloa crus-galli; details: rated 4-5 weeks after treatment
From the text: as §1, §2, §3

[6] = system: AMBEL (Ragweed, Common); assay: Postemergence herbicidal evaluation; type: in vivo, Ambrosia artemisifolia; details: postemergence
Description: (§4) In the tests, seedling plants are grown in jiffy flats for about two weeks. The test compounds are dispersed in 50/50 acetone/water mixtures containing 0.5% TWEEN®20, a polyoxyethylene sorbitan monolaurate surfactant of Atlas Chemical Industries, in sufficient quantities to provide the equivalent of about 0.0156 kg to 0.500 kg per hectare of active compound when applied to the plants through a spray nozzle operating at 40 psi for a predetermined time. After spraying, the plants are placed on greenhouse benches and are cared for in accordance with conventional greenhouse procedures. From four to five weeks after treatment, the seedling plants are examined and rated according to the rating system set forth below. Where more than one test is involved for a given compound, the data are averaged.
(§5) Plant species employed in these evaluations are reported by header abbreviation, common name and scientific name.
as §1

[7] = system: GALAP (Galium); assay: Preemergence herbicidal evaluation; type: in vivo, Galium aparine; details: rated 4-5 weeks after treatment
From the text: as §1, §2, §3

[8] = system: ZEAMX (Corn, Field); assay: Postemergence herbicidal evaluation; type: in vivo, Zea mays; details: postemergence
Outline: (§6)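 Seedlings grown about two weeks were sprayed at 40 psi with compound dispersed in 50/50 acetone/water plus 0.5% TWEEN 20, at about 0.0156 to 0.500 kg/ha. Plants were kept in the greenhouse and scored 4–5 weeks later on a 0–9 visual scale against untreated controls.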

[9] = system: CASOB (Sicklepod); assay: Preemergence herbicidal evaluation; type: in vivo, Cassia obtusifolia; details: rated 4-5 weeks after treatment
From the text: as §1, §2, §3

[10] = system: IPOHE (Morningglory, Ivyleaf); assay: Postemergence herbicidal evaluation; type: in vivo, Ipomoea hederacea; details: postemergence
Description: as §4, §5, §1

[11] = system: GLXMAW (Soybean, Williams); assay: Postemergence herbicidal evaluation; type: in vivo, Glycine max, (L.) Merr. cv Williams; details: postemergence
Outline: as §6

[12] = system: SETVI (Foxtail, Green); assay: Preemergence herbicidal evaluation; type: in vivo, Setaria viridis; details: rated 4-5 weeks after treatment
From the text: as §1, §2, §3

[13] = system: ABUTH (Velvetleaf); assay: Preemergence herbicidal evaluation; type: in vivo, Abutilon theophrasti; details: rated 4-5 weeks after treatment
From the text: as §1, §2, §3

COC(=O)COC(=O)CN1C(=O)CSC1=Nc1cc(-n2c(=O)cc(C(F)(F)F)n(C)c2=O)c(F)cc1Cl [Compound 108, 2-{{2-Chloro-5-[3,6-dihydro-3-methyl-2,6-dioxo-4-(trifluoromethyl)-1(2H)-pyrimidinyl]-4-fluorophenyl}imino}-4-oxo-3-thiazolidineacetic acid, ester with methyl glycolate]
7.0: Preemergence herbicidal rating GALAP ([7]; rate 0.1250 kg/ha) | Preemergence herbicidal rating SETVI ([12]; rate 0.1250 kg/ha)
4.0: Herbicidal rating AMBEL ([6]; rate 0.0158 kg/ha) | Preemergence herbicidal rating ABUTH ([13]; rate 0.0625 kg/ha)
9.0: Preemergence herbicidal rating GALAP ([7]; rate 0.2500 kg/ha) | Preemergence herbicidal rating CASOB ([9]; rate 0.2500 kg/ha) | Herbicidal rating IPOHE ([10]; rate 0.0158 kg/ha) | Herbicidal rating IPOHE ([10]; rate 0.0315 kg/ha) | Herbicidal rating IPOHE ([10]; rate 0.0630 kg/ha) | Preemergence herbicidal rating SETVI ([12]; rate 0.2500 kg/ha) | Preemergence herbicidal rating ABUTH ([13]; rate 0.2500 kg/ha)
3.0: SAGPY herbicidal effect rating ([2]; 0.1250 kg/ha)
1.0: Preemergence herbicidal rating AMBEL ([1]; rate 0.2500 kg/ha) | Preemergence herbicidal rating ECHCG ([5]; rate 0.2500 kg/ha) | Preemergence herbicidal rating GALAP ([7]; rate 0.0156 kg/ha) | Preemergence herbicidal rating SETVI ([12]; rate 0.0625 kg/ha)
8.0: Preemergence herbicidal rating ABUTH ([13]; rate 0.1250 kg/ha)
0.0: Preemergence herbicidal rating AMBEL ([1]; rate 0.0156 kg/ha) | Preemergence herbicidal rating AMBEL ([1]; rate 0.0313 kg/ha) | Preemergence herbicidal rating AMBEL ([1]; rate 0.0625 kg/ha) | Preemergence herbicidal rating AMBEL ([1]; rate 0.1250 kg/ha) | SAGPY herbicidal effect rating ([2]; 0.0313 kg/ha) | SAGPY herbicidal effect rating ([2]; 0.0625 kg/ha) | Preemergence herbicidal rating GLXMAW ([3]; rate 0.0156 kg/ha) | CYPSE herbicidal effect rating ([4]; 0.0313 kg/ha) | CYPSE herbicidal effect rating ([4]; 0.0625 kg/ha) | CYPSE herbicidal effect rating ([4]; 0.1250 kg/ha) | Preemergence herbicidal rating ECHCG ([5]; rate 0.0156 kg/ha) | Preemergence herbicidal rating ECHCG ([5]; rate 0.0313 kg/ha) | Preemergence herbicidal rating ECHCG ([5]; rate 0.0625 kg/ha) | Preemergence herbicidal rating ECHCG ([5]; rate 0.1250 kg/ha) | Preemergence herbicidal rating CASOB ([9]; rate 0.0156 kg/ha) | Preemergence herbicidal rating CASOB ([9]; rate 0.0313 kg/ha) | Preemergence herbicidal rating CASOB ([9]; rate 0.0625 kg/ha) | Preemergence herbicidal rating CASOB ([9]; rate 0.1250 kg/ha) | Preemergence herbicidal rating SETVI ([12]; rate 0.0156 kg/ha) | Preemergence herbicidal rating SETVI ([12]; rate 0.0313 kg/ha) | Preemergence herbicidal rating ABUTH ([13]; rate 0.0156 kg/ha) | Preemergence herbicidal rating ABUTH ([13]; rate 0.0313 kg/ha)
6.0: SAGPY herbicidal effect rating ([2]; 0.2500 kg/ha) | Preemergence herbicidal rating GALAP ([7]; rate 0.0625 kg/ha) | Herbicidal rating ZEAMX ([8]; rate 0.0315 kg/ha) | Herbicidal rating GLXMAW ([11]; rate 0.0630 kg/ha)
5.5: Herbicidal rating GLXMAW ([11]; rate 0.0315 kg/ha)
6.5: Herbicidal rating ZEAMX ([8]; rate 0.0630 kg/ha)
2.0: Preemergence herbicidal rating GLXMAW ([3]; rate 0.0625 kg/ha) | Preemergence herbicidal rating GLXMAW ([3]; rate 0.1250 kg/ha) | Preemergence herbicidal rating GLXMAW ([3]; rate 0.2500 kg/ha) | Preemergence herbicidal rating GALAP ([7]; rate 0.0313 kg/ha)
5.0: Herbicidal rating AMBEL ([6]; rate 0.0315 kg/ha) | Herbicidal rating AMBEL ([6]; rate 0.0630 kg/ha) | Herbicidal rating ZEAMX ([8]; rate 0.0158 kg/ha) | Herbicidal rating GLXMAW ([11]; rate 0.0158 kg/ha)
